Data on ten compounds can be found in patent US10004732B2 (Novartis AG, priority 2014, dated 2018).

Structures can show the parent of a compound that is named as a salt.

Data set [1] can be described thus: Microsomal clearance assay (M). The conditions noted are these: intrinsic clearance in rat liver microsomes.
Procedure: The experiments were performed in 96-well glass plates at 37° C. on an automated Tecan EVO platform. Test compounds at a concentration of 10 mM in pure DMSO were diluted 1:1000 in water to 10 μM. […] Reactions were initiated by the addition of 150 μL of a cofactor solution containing 2 mM NADPH.
Data set [2] concerns the target T1, PI 3-kinase alpha (Homo sapiens, UniProt P42336). Put plainly: Cellular assay H1, p-Akt (S473) in Rat-1 cells, Surefire format. It counts as cell-based. The note with it: non-asterisked data: version H1 (Surefire format), Rat-1 cells; read-out: Assay H PI3Kα IC50.
Data set [3] has as its target T2, PI 3-kinase gamma (Homo sapiens, UniProt P48736). Put plainly: Cellular U937 AKT assay K1 (MSD). It counts as cell-based. The note with it: U937 cells, K1 format; read-out: Assay K1 PI3Kγ IC50.
Data set [4] deals with T3, PI 3-kinase delta (Homo sapiens, UniProt O00329). As to the kind of experiment: TR-FRET Adapta assay, assay F. The conditions noted are these: read-out: Assay F PI3Kδ IC50.
Target sequence in this assay (O00329 whole entry): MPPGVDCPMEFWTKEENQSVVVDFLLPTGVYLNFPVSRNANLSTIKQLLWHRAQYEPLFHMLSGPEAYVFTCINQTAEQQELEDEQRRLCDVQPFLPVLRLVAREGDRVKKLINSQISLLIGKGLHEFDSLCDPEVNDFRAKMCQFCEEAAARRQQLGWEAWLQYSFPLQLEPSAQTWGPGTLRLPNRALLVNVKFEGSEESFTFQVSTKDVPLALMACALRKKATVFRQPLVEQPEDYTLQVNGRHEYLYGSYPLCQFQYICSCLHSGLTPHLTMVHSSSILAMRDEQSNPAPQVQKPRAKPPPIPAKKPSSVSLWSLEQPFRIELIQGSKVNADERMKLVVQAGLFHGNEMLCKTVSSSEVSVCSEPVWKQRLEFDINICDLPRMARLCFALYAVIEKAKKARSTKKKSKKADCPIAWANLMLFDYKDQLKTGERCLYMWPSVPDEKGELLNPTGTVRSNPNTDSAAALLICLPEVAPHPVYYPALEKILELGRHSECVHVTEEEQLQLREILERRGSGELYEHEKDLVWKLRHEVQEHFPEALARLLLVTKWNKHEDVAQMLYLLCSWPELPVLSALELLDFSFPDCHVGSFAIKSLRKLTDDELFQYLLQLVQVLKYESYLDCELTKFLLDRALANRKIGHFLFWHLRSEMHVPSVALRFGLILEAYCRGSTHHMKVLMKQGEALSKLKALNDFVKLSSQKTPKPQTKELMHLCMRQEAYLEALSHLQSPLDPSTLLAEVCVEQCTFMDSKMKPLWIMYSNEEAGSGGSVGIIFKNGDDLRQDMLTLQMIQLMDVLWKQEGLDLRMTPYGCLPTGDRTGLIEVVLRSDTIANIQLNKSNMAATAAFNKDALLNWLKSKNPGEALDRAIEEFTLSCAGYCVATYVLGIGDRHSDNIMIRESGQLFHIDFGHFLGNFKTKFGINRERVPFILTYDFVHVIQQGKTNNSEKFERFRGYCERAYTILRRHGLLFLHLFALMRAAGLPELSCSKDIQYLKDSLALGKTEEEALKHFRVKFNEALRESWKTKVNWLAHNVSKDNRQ
Target sequence in this assay (P27986 461-568 partner): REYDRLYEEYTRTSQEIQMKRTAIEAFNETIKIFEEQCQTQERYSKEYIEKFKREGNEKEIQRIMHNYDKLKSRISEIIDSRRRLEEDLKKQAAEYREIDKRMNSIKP
A further data set deals with PI 4-kinase beta (Homo sapiens, UniProt Q9UBF8). Put plainly: Kinase Glo Luminescent Kinase Assay (Kglo), assay D. Type of data set: biochemical. The conditions noted are these: read-out: Assay D PI4Kβ IC50.
PI 4-kinase beta, sequence (Q9UBF8 whole entry): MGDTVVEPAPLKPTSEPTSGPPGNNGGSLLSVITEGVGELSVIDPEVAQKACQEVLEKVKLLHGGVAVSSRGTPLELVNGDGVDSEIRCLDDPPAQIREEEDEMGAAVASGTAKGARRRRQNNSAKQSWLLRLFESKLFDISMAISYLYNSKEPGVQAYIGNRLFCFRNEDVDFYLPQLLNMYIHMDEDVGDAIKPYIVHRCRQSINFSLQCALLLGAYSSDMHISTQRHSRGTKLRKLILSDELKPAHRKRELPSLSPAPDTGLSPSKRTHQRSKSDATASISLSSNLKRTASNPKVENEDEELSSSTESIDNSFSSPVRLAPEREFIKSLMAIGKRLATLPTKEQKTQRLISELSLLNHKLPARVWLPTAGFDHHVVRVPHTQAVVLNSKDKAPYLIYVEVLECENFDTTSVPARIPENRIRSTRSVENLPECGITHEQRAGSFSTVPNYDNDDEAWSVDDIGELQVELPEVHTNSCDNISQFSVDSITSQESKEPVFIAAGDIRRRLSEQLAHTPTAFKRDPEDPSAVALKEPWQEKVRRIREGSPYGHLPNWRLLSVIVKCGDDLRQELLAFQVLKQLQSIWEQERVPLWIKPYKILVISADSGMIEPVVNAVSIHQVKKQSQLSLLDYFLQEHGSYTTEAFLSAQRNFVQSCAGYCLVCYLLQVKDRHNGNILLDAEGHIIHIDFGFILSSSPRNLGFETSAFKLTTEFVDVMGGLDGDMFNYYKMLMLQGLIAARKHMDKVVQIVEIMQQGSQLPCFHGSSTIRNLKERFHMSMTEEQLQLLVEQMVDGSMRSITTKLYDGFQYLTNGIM
In another data set the target is mTOR (Homo sapiens, UniProt P42345). Put plainly: Lanthascreen kinase binding assay, assay G. The conditions noted are these: read-out: Assay G mTOR IC50.
The target in data set [5] is T4, PI 3-kinase beta (Homo sapiens, UniProt P42338). Put plainly: Cellular assay I1, p-Akt (S473) in Rat-1 cells, Surefire format. It counts as cell-based. The conditions noted are these: non-asterisked data: version I1 (Surefire format), Rat-1 cells; read-out: Assay I PI3Kβ IC50.
Target sequence in this assay (P42338 whole entry): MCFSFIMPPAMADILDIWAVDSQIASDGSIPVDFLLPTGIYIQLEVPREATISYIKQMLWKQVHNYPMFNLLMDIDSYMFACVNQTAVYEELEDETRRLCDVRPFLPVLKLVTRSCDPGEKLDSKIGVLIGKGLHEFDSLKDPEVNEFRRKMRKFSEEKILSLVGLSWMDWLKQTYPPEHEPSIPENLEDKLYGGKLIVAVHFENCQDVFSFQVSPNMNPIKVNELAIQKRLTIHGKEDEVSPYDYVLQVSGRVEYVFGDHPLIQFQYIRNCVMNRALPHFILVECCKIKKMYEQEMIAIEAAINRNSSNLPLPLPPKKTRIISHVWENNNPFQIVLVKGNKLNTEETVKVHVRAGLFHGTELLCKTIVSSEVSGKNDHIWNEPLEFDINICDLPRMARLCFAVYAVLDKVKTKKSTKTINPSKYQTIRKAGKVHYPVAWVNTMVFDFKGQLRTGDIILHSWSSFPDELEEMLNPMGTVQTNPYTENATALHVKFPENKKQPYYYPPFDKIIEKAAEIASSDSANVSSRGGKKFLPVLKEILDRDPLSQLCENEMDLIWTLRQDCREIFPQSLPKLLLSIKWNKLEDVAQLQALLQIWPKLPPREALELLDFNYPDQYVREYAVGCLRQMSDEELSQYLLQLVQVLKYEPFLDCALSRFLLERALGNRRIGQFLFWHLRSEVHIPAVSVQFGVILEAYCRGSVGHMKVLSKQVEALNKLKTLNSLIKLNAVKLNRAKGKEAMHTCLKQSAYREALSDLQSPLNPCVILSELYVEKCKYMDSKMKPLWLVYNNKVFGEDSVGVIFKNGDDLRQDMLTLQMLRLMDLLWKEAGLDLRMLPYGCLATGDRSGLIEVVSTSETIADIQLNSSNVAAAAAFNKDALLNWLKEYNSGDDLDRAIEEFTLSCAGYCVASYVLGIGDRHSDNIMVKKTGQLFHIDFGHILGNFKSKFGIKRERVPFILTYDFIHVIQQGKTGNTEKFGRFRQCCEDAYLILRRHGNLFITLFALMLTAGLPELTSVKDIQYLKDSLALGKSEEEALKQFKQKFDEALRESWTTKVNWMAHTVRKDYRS
Target sequence in this assay (Q63787 whole entry partner): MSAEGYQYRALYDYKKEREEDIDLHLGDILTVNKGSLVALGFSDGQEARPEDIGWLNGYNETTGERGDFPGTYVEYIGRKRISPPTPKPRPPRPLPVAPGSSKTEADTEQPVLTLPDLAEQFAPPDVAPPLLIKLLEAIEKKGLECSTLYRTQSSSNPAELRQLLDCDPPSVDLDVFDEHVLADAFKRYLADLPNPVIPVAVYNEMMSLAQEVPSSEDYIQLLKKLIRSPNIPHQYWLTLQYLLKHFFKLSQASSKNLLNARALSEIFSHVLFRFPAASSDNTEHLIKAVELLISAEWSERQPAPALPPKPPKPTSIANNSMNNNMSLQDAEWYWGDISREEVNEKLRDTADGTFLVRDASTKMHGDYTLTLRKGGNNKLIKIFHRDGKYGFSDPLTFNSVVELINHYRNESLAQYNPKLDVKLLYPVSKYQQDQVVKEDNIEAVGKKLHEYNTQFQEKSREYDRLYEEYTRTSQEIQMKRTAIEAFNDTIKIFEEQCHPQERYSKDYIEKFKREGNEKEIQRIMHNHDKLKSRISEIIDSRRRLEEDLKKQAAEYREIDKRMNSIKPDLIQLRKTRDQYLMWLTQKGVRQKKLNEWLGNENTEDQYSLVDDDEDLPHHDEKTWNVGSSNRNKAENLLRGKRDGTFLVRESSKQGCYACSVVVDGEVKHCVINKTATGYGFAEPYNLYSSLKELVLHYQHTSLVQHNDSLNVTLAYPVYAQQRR
The target of data set [6] is T3, PI 3-kinase delta. As to the kind of experiment: Cellular assay J1, p-Akt (S473) in Rat-1 cells, Surefire format. It counts as cell-based. The note with it: non-asterisked data: version J1 (Surefire format), Rat-1 cells; read-out: Assay J PI3Kδ IC50.
Target sequence in this assay (O00329 whole entry): as the sequence (O00329 whole entry) above
Target sequence in this assay (Q63787 whole entry partner): as the sequence (Q63787 whole entry partner) above
Data set [7] deals with T4, PI 3-kinase beta. Put plainly: Kinase Glo Luminescent Kinase Assay (Kglo), assay B. Type of data set: biochemical. The note with it: read-out: Assay B PI3Kβ IC50.
Target sequence in this assay (P42338 whole entry): as the sequence (P42338 whole entry) above
Target sequence in this assay (P27986 461-568 partner): as the sequence (P27986 461-568 partner) above
In data set [8] the target is T1, PI 3-kinase alpha. Put plainly: Kinase Glo Luminescent Kinase Assay (Kglo), assay A. Type of data set: biochemical. The note with it: read-out: Assay A PI3Kα IC50.
Procedure: Kinase Glo Luminescent Kinase Assay (Kglo) for Pb 3-Kinase Alpha (A), Pb 3-Kinase Beta (B), Vps34 (C), Pb 4-Kinase Beta (D)
The Kinase Glo Luminescent Kinase Assay (Promega, Madison/Wis., USA) is a homogeneous HTS method of measuring kinase activity by quantifying the amount of ATP remaining in solution following a kinase reaction.
L-α-phosphatidylinositol (PI), provided as 10 mg/ml solution in methanol, was transferred into a glass tube and dried under a nitrogen beam. It was then resuspended in 3% OctylGlucoside (1-0-n-octyl-beta-D-glucopyranoside) by vortexing and stored at 4° C. 5 μL of a mix of PI/OctylGlucoside with the PI 3-kinase alpha and PI 3-kinase beta subtypes, or Vps34 or PI 4-kinase beta were added. Kinase reactions were started by the addition of 5 μl of an ATP-mix containing in a final volume 10 μL 10 mM TRIS-HCl pH 7.5, 3 mM MgCl2, 50 mM NaCl, 0.05% CHAPS, 1 mM DTT and 1 μM ATP at room temperature.
All fits were performed with the program XLfit4 (ID Business Solutions, Guildford, UK).
The target of another data set is Vps34 (Homo sapiens, UniProt Q8NEB9). Put plainly: Kinase Glo Luminescent Kinase Assay (Kglo), assay C. Type of data set: biochemical. The note with it: read-out: Assay C VPS34 IC50.
The target in data set [9] is T2, PI 3-kinase gamma. As to the kind of experiment: TR-FRET Adapta assay, assay E. It counts as biochemical. The conditions noted are these: read-out: Assay E PI3Kγ IC50.
Data set [10] relates to IL-8-induced neutrophil shape change in human whole blood. Put plainly: Whole blood neutrophil shape change assay (L). Type of data set: cell-based. The conditions noted are these: Homo sapiens, Neutrophil, IL-8, human whole blood, read-out: Assay L WBSC IC50.

T2 sequence (P48736 whole entry): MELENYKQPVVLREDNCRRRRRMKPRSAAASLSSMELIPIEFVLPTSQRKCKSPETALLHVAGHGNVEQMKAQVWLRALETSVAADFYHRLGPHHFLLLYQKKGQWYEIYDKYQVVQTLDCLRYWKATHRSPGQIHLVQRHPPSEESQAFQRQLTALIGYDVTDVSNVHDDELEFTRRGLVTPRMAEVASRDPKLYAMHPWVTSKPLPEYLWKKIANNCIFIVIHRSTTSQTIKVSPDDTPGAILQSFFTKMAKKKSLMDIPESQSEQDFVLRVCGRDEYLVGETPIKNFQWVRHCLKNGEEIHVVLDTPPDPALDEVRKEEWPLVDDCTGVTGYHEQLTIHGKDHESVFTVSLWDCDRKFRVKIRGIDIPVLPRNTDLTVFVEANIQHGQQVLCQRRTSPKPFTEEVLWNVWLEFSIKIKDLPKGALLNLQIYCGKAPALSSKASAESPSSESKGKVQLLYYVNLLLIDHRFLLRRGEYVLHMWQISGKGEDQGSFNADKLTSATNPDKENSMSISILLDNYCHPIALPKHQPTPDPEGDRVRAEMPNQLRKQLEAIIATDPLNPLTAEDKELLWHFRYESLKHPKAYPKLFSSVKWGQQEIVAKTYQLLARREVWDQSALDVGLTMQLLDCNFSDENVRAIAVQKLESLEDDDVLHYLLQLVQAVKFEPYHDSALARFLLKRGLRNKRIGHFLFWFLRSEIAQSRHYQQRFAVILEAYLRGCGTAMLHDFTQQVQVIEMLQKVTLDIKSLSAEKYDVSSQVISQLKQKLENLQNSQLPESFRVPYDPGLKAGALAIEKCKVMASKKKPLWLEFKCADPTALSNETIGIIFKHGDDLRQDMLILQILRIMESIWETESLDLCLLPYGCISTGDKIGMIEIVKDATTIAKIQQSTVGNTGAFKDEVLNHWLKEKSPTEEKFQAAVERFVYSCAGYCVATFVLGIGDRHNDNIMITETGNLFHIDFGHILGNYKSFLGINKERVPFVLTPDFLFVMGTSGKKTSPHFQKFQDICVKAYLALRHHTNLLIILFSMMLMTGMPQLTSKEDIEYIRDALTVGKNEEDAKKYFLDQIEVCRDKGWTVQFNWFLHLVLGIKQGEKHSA
Procedure for mTOR: Lanthascreen™ Kinase Binding Assay for mTOR (G)
Binding of an inhibitor to the kinase competes for binding with the tracer, resulting in a loss of FRET.
50 nL of compound dilutions were dispensed onto white 384-well small volume polystyrene plate.

Regarding `Cc1ccc(S(=O)(=O)NC[C@H]2CCOC2)cc1-c1cnc(N)c(-c2cn(C)nc2C)n1` [Example 16, 3-[5-Amino-6-(1,3-dimethyl-1H-pyrazol-4-yl)-pyrazin-2-yl]-4-methyl-N—[(R)-1-(tetrahydrofuran-3-yl)methyl]-benzenesulfonamide], in [1], the “Assay M RLM CI(int)” value amounted to 47 µL/min/mg. In addition, the IC50 at PI 3-kinase alpha [2] came out at 900 nM; on PI 3-kinase gamma [3], 43 nM; on PI 3-kinase delta [4], 250 nM; at PI 4-kinase beta it was 6.4 µM; on mTOR, 5.3 µM; on PI 3-kinase beta [5] it was 1.86 µM. Further, the concentration for half-maximal inhibition (IC50) is 620 nM on PI 3-kinase delta [6]; 1020 nM on PI 3-kinase beta [7]; 140 nM on PI 3-kinase alpha [8]; more than 10 µM on Vps34; 9 nM on PI 3-kinase gamma [9]; 154 nM in data set [10].

Consider `Cc1ccc(S(=O)(=O)NCC2(C)COC2)cc1-c1cnc(N)c(-c2cn(C)nc2C)n1` [Example 17, 3-[5-Amino-6-(1,3-dimethyl-1H-pyrazol-4-yl)-pyrazin-2-yl]-4-methyl-N-(3-methyl-oxetan-3-ylmethyl)-benzenesulfonamide], for which, in data set [1], the “Assay M RLM CI(int)” value is 34 µL/min/mg. Besides, the IC50 was 2800 nM at PI 3-kinase alpha [2]; 51 nM on PI 3-kinase gamma [3]; 590 nM on PI 3-kinase delta [4]; 8.3 µM on PI 4-kinase beta; 6.1 µM at mTOR; 8.25 µM on PI 3-kinase beta [5]. For the same compound, the half-inhibitory concentration (IC50) was 1920 nM at PI 3-kinase delta [6]; 900 nM at PI 3-kinase beta [7]; 220 nM at PI 3-kinase alpha [8]; more than 10 µM on Vps34; 10 nM on PI 3-kinase gamma [9]; 166 nM in data set [10].

With `Cc1ccc(S(=O)(=O)N[C@H]2CC[C@H](O)CC2)cc1-c1cnc(N)c(-c2nc(C3CC3)no2)n1` [Example 24, Trans-3-[5-Amino-6-(3-cyclopropyl-[1,2,4]oxadiazol-5-yl)-pyrazin-2-yl]-N-(4-hydroxy-cyclohexyl)-4-methyl-benzene sulfonamide], in [1], the “Assay M RLM CI(int)” value worked out at 43 µL/min/mg. Besides, the IC50 on PI 3-kinase alpha [2] is 1060 nM; at PI 3-kinase gamma [3], 53 nM; at PI 3-kinase delta [4], 60 nM; on PI 4-kinase beta it was more than 9.1 µM; on mTOR it was 7.91 µM; on PI 3-kinase beta [5], 6.25 µM. Moreover, the 50% inhibitory concentration (IC50) at PI 3-kinase delta [6] is 660 nM; at PI 3-kinase beta [7] it was 6060 nM; at PI 3-kinase alpha [8] it was 200 nM; on Vps34, more than 9.1 µM; at PI 3-kinase gamma [9], 7 nM; in data set [10], 561 nM.

Consider `Cc1ccc(S(=O)(=O)NCCC(C)(C)O)cc1-c1cnc(N)c(-n2cnc(C3CC3)n2)n1` [Example 26, 3-[5-Amino-6-(3-cyclopropyl-[1,2,4]triazol-1-yl)-pyrazin-2-yl]-N-(3-hydroxy-3-methyl-butyl)-4-methyl-benzenesulfonamide], for which the “Assay M RLM CI(int)” value in data set [1] came out at 223 µL/min/mg. The half-maximal inhibitory concentration (IC50) on PI 3-kinase alpha [2] is 1100 nM; at PI 3-kinase gamma [3], 54 nM; at PI 3-kinase delta [4] it was 70 nM; on PI 4-kinase beta, 5.47 µM; on mTOR, more than 9.1 µM; on PI 3-kinase beta [5] it was 2.03 µM. Further, the IC50 was 760 nM at PI 3-kinase delta [6]; 6380 nM at PI 3-kinase beta [7]; 310 nM on PI 3-kinase alpha [8]; more than 9.1 µM at Vps34; 3 nM at PI 3-kinase gamma [9]; 683 nM in data set [10].

Turning to `CCN1CCC[C@@H]1CNS(=O)(=O)c1ccc(C)c(-c2cnc(N)c(-c3cn(C)nc3C)n2)c1` [Example 27, 3-[5-Amino-6-(1,3-dimethyl-1H-pyrazol-4-yl)-pyrazin-2-yl]-N—((R)-1-ethyl-pyrrolidin-2-ylmethyl)-4-methyl-benzenesulfonamide hydrochloride], in data set [1], the “Assay M RLM CI(int)” value came to 60 µL/min/mg. In addition, the IC50 is more than 10000 nM at PI 3-kinase alpha [2]; 58 nM on PI 3-kinase gamma [3]; 70 nM at PI 3-kinase delta [4]; 6.65 µM at PI 4-kinase beta; 7.4 µM at mTOR; more than 10 µM on PI 3-kinase beta [5]. For the same compound, the concentration for half-maximal inhibition (IC50) was 1020 nM at PI 3-kinase delta [6]; 870 nM at PI 3-kinase beta [7]; 210 nM at PI 3-kinase alpha [8]; more than 10 µM on Vps34; 47 nM on PI 3-kinase gamma [9]; 562 nM in data set [10].

Take `Cc1ccc(S(=O)(=O)NCCC(C)(C)O)cc1-c1cnc(N)c(-c2csc(CN3CCOCC3)c2)n1` [Example 30, 3-[5-Amino-6-(5-morpholin-4-ylmethyl-thiophen-3-yl)-pyrazin-2-yl]-N-(3-hydroxy-3-methyl-butyl)-4-methyl-benzenesulfonamide]: in data set [1], the “Assay M RLM CI(int)” value stood at 116 µL/min/mg. For the same compound, the 50% inhibitory concentration (IC50) was determined as 3810 nM on PI 3-kinase alpha [2]; 98 nM on PI 3-kinase gamma [3]; 50 nM on PI 3-kinase delta [4]; 7.89 µM on PI 4-kinase beta; 6.99 µM on mTOR; 1.65 µM at PI 3-kinase beta [5]. Moreover, the half-inhibitory concentration (IC50) is 480 nM at PI 3-kinase delta [6]; 5210 nM at PI 3-kinase beta [7]; 300 nM on PI 3-kinase alpha [8]; more than 9.1 µM on Vps34; 24 nM at PI 3-kinase gamma [9]; 407 nM in [10].

As for `Cc1ccc(S(=O)(=O)NOCC(C)(C)O)cc1-c1cnc(N)c(-n2cncn2)n1` [Example 31, 3-(5-Amino-6-[1,2,4]triazol-1-yl-pyrazin-2-yl)-N-(2-hydroxy-2-methyl-propoxy)-4-methyl-benzenesulfonamide], the “Assay M RLM CI(int)” value in data set [1] worked out at 37 µL/min/mg. The IC50 at PI 3-kinase alpha [2] is 1040 nM; on PI 3-kinase gamma [3], 40 nM; on PI 3-kinase delta [4], 120 nM; at PI 4-kinase beta, 4.4 µM; on mTOR it was 3.8 µM; at PI 3-kinase beta [5] it was 2.51 µM. Further, the IC50 at PI 3-kinase delta [6] is 1030 nM; on PI 3-kinase beta [7], 2000 nM; at PI 3-kinase alpha [8], 160 nM; at Vps34, more than 9.55 µM; at PI 3-kinase gamma [9] it was 27 nM; in data set [10], 917 nM.

Turning to `Cc1ccc(S(=O)(=O)NCC2(CO)COC2)cc1-c1cnc(N)c(-n2cncn2)n1` [Example 35, 3-(5-Amino-6-[1,2,4]triazol-1-yl-pyrazin-2-yl)-N-(3-hydroxymethyl-oxetan-3-ylmethyl)-4-methyl-benzenesulfonamide], the “Assay M RLM CI(int)” value in data set [1] was 25 µL/min/mg. Also, the IC50 was more than 10000 nM on PI 3-kinase alpha [2]; 418 nM at PI 3-kinase gamma [3]; 990 nM on PI 3-kinase delta [4]; 3.7 µM at PI 4-kinase beta; 5.6 µM on mTOR; more than 10 µM on PI 3-kinase beta [5]. For the same compound, the 50% inhibitory concentration (IC50) was more than 10000 nM on PI 3-kinase delta [6]; 1900 nM at PI 3-kinase beta [7]; 630 nM at PI 3-kinase alpha [8]; more than 10 µM at Vps34; 25 nM on PI 3-kinase gamma [9]; 669 nM in data set [10].

On to `Cc1ccc(S(=O)(=O)NC2CCC(F)(F)CC2)cc1-c1cnc(N)c(-c2cnn(C)c2)n1` [Example 54, 3-(5-Amino-6-(1-methyl-1H-pyrazol-4-yl)pyrazin-2-yl)-N-(4,4-difluorocyclohexyl)-4-methylbenzenesulfonamide], for which, in data set [1], the “Assay M RLM CI(int)” value is 141 µL/min/mg. Besides, the half-inhibitory concentration (IC50) on PI 3-kinase alpha [2] is 1690 nM; at PI 3-kinase gamma [3], 140 nM; at PI 3-kinase delta [4], 110 nM; at PI 4-kinase beta it was more than 9.1 µM; on mTOR, 4.81 µM; at PI 3-kinase beta [5] it was 7.41 µM. The IC50 on PI 3-kinase delta [6] is 2030 nM; at PI 3-kinase beta [7], 770 nM; at PI 3-kinase alpha [8], 190 nM; at Vps34 it was more than 9.1 µM; at PI 3-kinase gamma [9] it was 17 nM; in data set [10] it was 2010 nM.

Regarding `Cc1cn(-c2nc(-c3cc(S(=O)(=O)N[C@H]4CC[C@H](O)CC4)ccc3C)cnc2N)cn1` [Example 56, Trans-3-(5-Amino-6-(4-methyl-1H-imidazol-1-yl)pyrazin-2-yl)-N-(-4-hydroxycyclohexyl)-4-methylbenzenesulfonamide], the “Assay M RLM CI(int)” value in data set [1] came to 24 µL/min/mg. Besides, the IC50 amounted to 4400 nM at PI 3-kinase alpha [2]; 129 nM at PI 3-kinase gamma [3]; 80 nM on PI 3-kinase delta [4]; 7.27 µM on PI 4-kinase beta; 2.38 µM on mTOR; 5.88 µM on PI 3-kinase beta [5]. For the same compound, the IC50 at PI 3-kinase delta [6] was determined as 3120 nM; at PI 3-kinase beta [7] it was 1750 nM; on PI 3-kinase alpha [8], 290 nM; on Vps34, 3.52 µM; at PI 3-kinase gamma [9] it was 19 nM; in data set [10], 211 nM.
